Laboratory results as given in US7183315B2, “Silver salts of sucrose-octasulphate” (Interalia S.R.L., priority 2001, dated 2007).

Key:
[1] = system: Staphylococcus Aureus ATCC 6538; assay: Bacterial growth inhibition test in culture broth; format: cell-based; design: key to inhibition of S. aureus ATCC 6538 growth / inhibition of S. aureus ATCC 6538: − growth; + inhibition; details: for inhibition of S. aureus ATCC 6538: Table 2
Protocol: Serial dilutions of known titre of the two products SOS-Ag and Katoxyn, the latter containing Ag in the form of metallic silver (silver […]® collodial chemical), have been placed directly in contact with the test microorganism (Staphylococcus Aureus ATCC 6538) for incubation in culture broth under agitation. The effect of the substances on cellular growth has been measured by evaluating the absence of turbidity in the culture medium. The anti bacterial activity has been verified by the seeding of 1 ml of culture broth in an […] medium, with observations at 7, 14, 21, 28 days from the beginning of the experiment (tables 1 and 2).

[2] = system: Staphylococcus Aureus ATCC 6538; assay: Bacterial growth inhibition test by diffusion in agar (seeded by inclusion, 8 mm wells); format: cell-based
Text: The inhibition of bacterial growth has been, in this case, evaluated on a confluent bacterial culture of Staphylococcus aureus ATCC 6538 obtained on solid medium, according to the seeding method for inclusion. Serial dilutions of the test products, of known Ag titre, have been deposited inside 8 mm diameter wells formed in the medium in direct contact with the bacteria Staphylococcus aureus ATCC 6538. The antibacterial activity of the products under test have been evaluated, after appropriate incubations, by measuring the halos of inhibition around each well (tables 3 and 4).

[3] = system: Staphylococcus aureus; details: preservative in cosmetic preparations; cited from earlier work
[4] = system: Pseudomonas aeruginosa; details: preservative in cosmetic preparations; cited from earlier work
[5] = system: Candida albicans; details: preservative in cosmetic preparations; cited from earlier work
[6] = system: S. aureus ATCC 6538; assay: Diffusion method in agar, seeded by inclusion, 8 mm wells, 72 h; format: cell-based, Staphylococcus aureus; details: 72 hours at 37° C.
Protocol: (§1) The characterisation of the antibacterial activity has been carried out using the method of diffusion in agar, placing the substances in contact with confluent bacterial cultures on solid medium. The experiments have been carried out according to two distinct methods: 1) wetting sterile cellulose disks, 13 mm in diameter with 100 μl of solutions at serial dilutions of the product of known Ag titre. […] 100 μl of the solutions containing the products at known concentrations of Ag are placed on the base of the wells, and the bacteriocidal activity is observed after 72 hours of incubation at 37° C. against a blank constituted of just the solvent used for the solubilisation of the products.

[7] = Solubility of the product; format: physicochemical; details: product of example 1
[8] = system: S. aureus ATCC 6538; assay: Diffusion method in agar, cellulose disks of 13 mm; format: cell-based, Staphylococcus aureus; details: 72 hours at 37° C.
Protocol: as §1

[9] = Stability in solid state and aqueous solution; format: physicochemical; details: obtained according to example 3

Compound: CC1(C)S[C@@H]2[C@H](NC(=O)[C@H](N)c3ccccc3)C(=O)N2[C@H]1C(=O)O [ampicillin, reference compound]
- inhibition of S. aureus ATCC 6538 growth ([1]; positive control, Table 1, 7 days): +
- inhibition of S. aureus ATCC 6538 growth ([1]; positive control, Table 1, 14 days): +
- inhibition of S. aureus ATCC 6538 growth ([1]; positive control, Table 1, 21 days): +
- inhibition of S. aureus ATCC 6538 growth ([1]; positive control, Table 1, 28 days): +
- inhibition of S. aureus ATCC 6538 ([1]; positive control, 7 days): +
- inhibition of S. aureus ATCC 6538 ([1]; positive control, 14 days): +
- inhibition of S. aureus ATCC 6538 ([1]; positive control, 21 days): +
- inhibition of S. aureus ATCC 6538 ([1]; positive control, 28 days): +
- Halo of inhibition ([2]; Concentration 5 I.U./ml, positive control): 11 mm
- Halo of inhibition ([2]; Concentration 10 I.U./ml, positive control): 20 mm
- Halo of inhibition ([2]; Concentration 20 I.U./ml, positive control): 39 mm

Compound: [Ag] [silver]
- concentration of silver showing activity [3]: 10^−5 M
- concentration of silver showing activity [4]: 10^−5 M
- concentration of silver showing activity [5]: 10^−5 M

Compound: silver salts of sucrose-octasulphate [SOS-Ag]
- Halo of inhibition ([6]; Ag titre 10^−2 M): 14.5 mm
- Halo of inhibition ([6]; Ag titre 10^−3 M): 14 mm
- Halo of inhibition ([6]; Ag titre 10^−4 M): 0 mm
- Halo of inhibition ([6]; Ag titre 10^−5 M): 0 mm
- Solubility in organic solvents ([7]; organic solvents): particularly insoluable
- Solubility in water ([7]; water): very soluble
- Halo of inhibition ([8]; Ag titre 10^−2 M): 15.3 mm
- Halo of inhibition ([8]; Ag titre 10^−3 M): 12 mm
- Halo of inhibition ([8]; Ag titre 10^−4 M): 0 mm
- Halo of inhibition ([8]; Ag titre 10^−5 M): 0 mm
- inhibition of S. aureus ATCC 6538 growth ([1]; Ag titre 1 × 10^−2 M, 7 days): +
- inhibition of S. aureus ATCC 6538 growth ([1]; Ag titre 1 × 10^−2 M, 14 days): +
- inhibition of S. aureus ATCC 6538 growth ([1]; Ag titre 1 × 10^−2 M, 21 days): +
- inhibition of S. aureus ATCC 6538 growth ([1]; Ag titre 1 × 10^−2 M, 28 days): +
- inhibition of S. aureus ATCC 6538 growth ([1]; Ag titre 1 × 10^−3 M, 7 days): +
- inhibition of S. aureus ATCC 6538 growth ([1]; Ag titre 1 × 10^−3 M, 14 days): +
- inhibition of S. aureus ATCC 6538 growth ([1]; Ag titre 1 × 10^−3 M, 21 days): +
- inhibition of S. aureus ATCC 6538 growth ([1]; Ag titre 1 × 10^−3 M, 28 days): +
- inhibition of S. aureus ATCC 6538 growth ([1]; Ag titre 1 × 10^−4 M, 7 days): −
- inhibition of S. aureus ATCC 6538 growth ([1]; Ag titre 1 × 10^−4 M, 14 days): −
- inhibition of S. aureus ATCC 6538 growth ([1]; Ag titre 1 × 10^−4 M, 21 days): −
- inhibition of S. aureus ATCC 6538 growth ([1]; Ag titre 1 × 10^−4 M, 28 days): −
- inhibition of S. aureus ATCC 6538 growth ([1]; Ag titre 1 × 10^−5 M, 7 days): −
- inhibition of S. aureus ATCC 6538 growth ([1]; Ag titre 1 × 10^−5 M, 14 days): −
- inhibition of S. aureus ATCC 6538 growth ([1]; Ag titre 1 × 10^−5 M, 21 days): −
- inhibition of S. aureus ATCC 6538 growth ([1]; Ag titre 1 × 10^−5 M, 28 days): −
- inhibition of S. aureus ATCC 6538 growth ([1]; Ag titre 5 × 10^−4 M, 7 days): −
- inhibition of S. aureus ATCC 6538 growth ([1]; Ag titre 5 × 10^−4 M, 14 days): −
- inhibition of S. aureus ATCC 6538 growth ([1]; Ag titre 5 × 10^−4 M, 21 days): −
- inhibition of S. aureus ATCC 6538 growth ([1]; Ag titre 5 × 10^−4 M, 28 days): −
- concentration of Ag at which the product has been effective / active ([1]; S. aureus ATCC 6538, summary of tables 1-4 (culture broth and agar diffusion)): 1 mM
- stability in aqueous solution ([9]; aqueous solution): good stability
- stability in the solid state ([9]; solid state): good stability
- Halo of inhibition ([2]; Ag titre 1 × 10^−3 M, 8 mm wells): 13 mm
- Halo of inhibition ([2]; Ag titre 1 × 10^−4 M, 8 mm wells): 0 mm
- Halo of inhibition ([2]; Ag titre 5 × 10^−4 M, 8 mm wells): 0 mm
